# Laboratory results reported in patent US9139523B2, “5-HT2B receptor antagonists” (Janssen Pharmaceutica, NV, priority 2010, dated 2015).
# Tests used:
# [1] = target: T1, 5HT1A (Homo sapiens, UniProt P08908); assay: Competitive radioligand binding, 5HT1A; details: HEK293 membranes, 3H-8-OH-DPAT 0.5 nM; read-out: pIC50 5HT1A (converted)
# T1 construct: expressed in transfected cells; host or cells: HEK293 (membrane fraction)
# T1 sequence (P08908 1-422): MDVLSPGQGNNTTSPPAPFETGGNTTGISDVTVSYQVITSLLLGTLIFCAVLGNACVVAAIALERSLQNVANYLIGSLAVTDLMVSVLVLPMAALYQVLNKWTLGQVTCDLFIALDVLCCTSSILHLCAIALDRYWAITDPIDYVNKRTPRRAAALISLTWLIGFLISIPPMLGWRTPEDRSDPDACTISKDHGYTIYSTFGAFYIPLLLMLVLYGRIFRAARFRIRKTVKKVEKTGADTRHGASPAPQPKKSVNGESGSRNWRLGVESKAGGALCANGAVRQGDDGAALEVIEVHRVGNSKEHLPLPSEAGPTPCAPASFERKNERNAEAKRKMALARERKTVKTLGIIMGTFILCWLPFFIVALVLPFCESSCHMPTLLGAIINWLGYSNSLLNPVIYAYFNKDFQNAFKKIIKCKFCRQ
# Description: (§1) Competitive radioligand binding assays were used to determine the affinity of the test compounds for a particular receptor. Various concentrations of the non-labelled test compound were added to the incubation mixture with the membrane fraction, containing the receptor of interest, and a fixed low concentration (nM) of the radioligand. During the incubation the radioligand bound to the receptor, but this was inhibited by the non-labelled test compound in proportion to its binding affinity and concentration.
# (§2) Cell lines were established that stably express the human variant of the receptor under investigation after transfection with the appropriate cDNA (Table 1). Transfected cells were grown under standard culture conditions, and membrane fractions were obtained upon centrifugation and homogenisation of the cells. Optimal membrane dilutions for binding studies were determined and aliquots were stored at −70° C. until use. In a 96-well plate format, the appropriate radioligand was added to the membrane preparation containing the receptor under investigation. Compound solutions were prepared in DMSO, and diluted 100-fold into the multiwell plate to a final test concentration of 10^−9 to 10^−5 M. After incubation with the test compound, the unbound radioligand was removed by filtration on G/F filters with a Filtermate 96. Microscint™ was added to the washed filter plates and the radioactivity bound to the receptor was measured by liquid scintillation counting in a TopCount (Packard). To measure the Non-Specific Binding (NSB), a high concentration of the non-radiolabeled ligand was added to wells containing the membrane fraction and the radioligand.
# Using in house developed software, a best-fit curve was fitted by a minimum sum of squares method to the plot of % inhibition vs. concentration of the test compound. From this, the pIC50 value (inhibitory concentration causing 50% displacement of specific binding) was determined, as well as an estimate of the slope of the plot (Hill coefficient).
# [2] = target: T2, 5HT2A (Homo sapiens, UniProt P28223); assay: Competitive radioligand binding, 5HT2A; details: NIH3T3 membranes, 3H-ketanserin 2 nM; read-out: pIC50 5HT2A (converted)
# T2 construct: expressed in transfected cells; host or cells: NIH3T3 (membrane fraction)
# Description: as §1, §2
# From this, the pIC50 value (inhibitory concentration causing 50% displacement of specific binding) was determined, as well as an estimate of the slope of the plot (Hill coefficient).
# [3] = target: T3, hERG potassium channel (Homo sapiens, UniProt Q12809); assay: hERG-transfected HEK293 cells using a Patch Express apparatus; type: cell-based; details: bracketed value in cell = % block by vehicle
# T3 construct: expressed in transfected cells; host or cells: HEK293
# Description: Experiments were performed using HEK293 cells stably expressing the hERG potassium channel. Cells were grown at 37° C. and 5% CO2 in culture flasks in MEM Medium supplemented with 10% heat-inactivated fetal bovine serum, 1% L-Glutamine-Penicillin-Streptomycin-solution, 1% non-essential amino acids (100×), 1% sodium pyruvate (100 mM) and 0.8% Geneticin (50 mg/ml). Before use the cells were subcultured in MEM medium in the absence of 5 ml L-Glutamine-Penicillin-Streptomycin. For use in the automated patch-clamp system PatchXpress 7000A (Axon Instruments) cells were harvested to obtain cell suspension of single cells. Extracellular solution contained (mM): 150 NaCl, 4 KCl, 1 MgCl2, 1.8 CaCl2, 10 HEPES, 5 Glucose (pH 7.4 with NaOH). Pipette solution contained (mM): 120 KCl, 10 HEPES, 5 EGTA, 4 ATP-Mg2, 2 MgCl2, 0.5 CaCl2 (pH 7.2 with KOH).
# Patch-clamp experiments were performed in the voltage-clamp mode and whole-cell currents were recorded with an automated patch-clamp assay utilizing the PatchXpress 7000A system (Axon Instruments). Current signals were amplified and digitized by a Multiclamp amplifier, stored and analyzed by using the PatchXpress, DataXpress software and Igor 5.0 (Wavemetrics).
# The holding potential was −80 mV. The hERG current (K+-selective outward current) was determined as the maximal tail current at −40 mV after a 2 second depolarization to +60 mV. Pulse cycling rate was 15 s. Before each test pulse a short pulse (0.5 s) from the holding potential to −60 mV was given to determine (linear) leak current. After establishing whole-cell configuration and a stability period, the vehicle (aqueous DMSO control) was applied for 5 minutes followed by the test substance by increasing concentrations of 10^−7 M, 3×10^−7 M and 3×10^−6 M.
# Each concentration of the test substance was applied twice. The effect of each concentration was determined after 5 min as an average current of 3 sequential voltage pulses. To determine the extent of block the residual current was compared with vehicle pre-treatment. Data are expressed as % block at the indicated concentrations in Table 4. The values between brackets refer to % block by the vehicle.
# T2 sequence (P28223 whole entry): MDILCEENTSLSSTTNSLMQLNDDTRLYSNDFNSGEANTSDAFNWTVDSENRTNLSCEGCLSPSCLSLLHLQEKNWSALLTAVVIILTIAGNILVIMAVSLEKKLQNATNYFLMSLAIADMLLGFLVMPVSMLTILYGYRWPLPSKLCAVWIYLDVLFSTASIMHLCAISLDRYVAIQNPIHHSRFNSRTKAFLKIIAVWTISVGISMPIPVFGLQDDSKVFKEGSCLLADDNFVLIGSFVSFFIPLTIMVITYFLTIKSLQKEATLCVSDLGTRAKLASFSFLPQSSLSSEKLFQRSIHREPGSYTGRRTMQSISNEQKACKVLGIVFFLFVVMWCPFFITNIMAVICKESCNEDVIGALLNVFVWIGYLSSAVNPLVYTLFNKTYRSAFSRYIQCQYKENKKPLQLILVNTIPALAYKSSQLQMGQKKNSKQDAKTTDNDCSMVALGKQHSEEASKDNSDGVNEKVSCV
# T3 sequence (Q12809 whole entry): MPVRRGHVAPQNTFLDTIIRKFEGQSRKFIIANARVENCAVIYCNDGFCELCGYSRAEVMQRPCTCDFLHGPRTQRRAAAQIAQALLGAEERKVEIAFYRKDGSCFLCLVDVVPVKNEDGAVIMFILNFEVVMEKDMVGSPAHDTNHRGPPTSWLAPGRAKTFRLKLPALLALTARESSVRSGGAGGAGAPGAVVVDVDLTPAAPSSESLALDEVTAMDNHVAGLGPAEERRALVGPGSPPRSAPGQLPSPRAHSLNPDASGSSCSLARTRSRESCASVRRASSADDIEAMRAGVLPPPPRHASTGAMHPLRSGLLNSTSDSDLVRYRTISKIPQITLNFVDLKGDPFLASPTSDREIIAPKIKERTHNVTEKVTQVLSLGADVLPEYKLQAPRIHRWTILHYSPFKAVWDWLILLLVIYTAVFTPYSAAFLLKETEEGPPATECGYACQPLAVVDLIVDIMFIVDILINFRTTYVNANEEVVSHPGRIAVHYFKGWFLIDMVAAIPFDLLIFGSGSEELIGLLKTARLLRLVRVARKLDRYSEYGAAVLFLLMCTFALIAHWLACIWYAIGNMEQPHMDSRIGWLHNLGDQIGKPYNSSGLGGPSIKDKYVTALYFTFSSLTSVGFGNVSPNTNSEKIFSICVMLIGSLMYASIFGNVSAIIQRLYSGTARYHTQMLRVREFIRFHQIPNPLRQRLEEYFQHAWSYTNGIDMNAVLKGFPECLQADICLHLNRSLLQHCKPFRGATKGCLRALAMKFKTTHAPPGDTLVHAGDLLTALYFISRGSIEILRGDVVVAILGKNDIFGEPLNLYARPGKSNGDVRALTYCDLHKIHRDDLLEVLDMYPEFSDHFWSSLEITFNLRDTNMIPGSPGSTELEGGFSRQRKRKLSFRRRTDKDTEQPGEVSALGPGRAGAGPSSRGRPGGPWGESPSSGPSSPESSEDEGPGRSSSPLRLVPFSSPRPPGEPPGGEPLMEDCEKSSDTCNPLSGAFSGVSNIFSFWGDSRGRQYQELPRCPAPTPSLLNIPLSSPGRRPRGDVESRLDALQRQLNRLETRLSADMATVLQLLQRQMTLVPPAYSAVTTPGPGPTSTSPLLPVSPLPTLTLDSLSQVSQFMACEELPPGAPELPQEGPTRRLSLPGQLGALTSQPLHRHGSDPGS
Compound,IC50 [1],IC50 [2],% block of the hERG channel ([3]; 100 nM),% block of the hERG channel ([3]; 300 nM),% block of the hERG channel ([3]; 3000 nM)
"COc1cc(N)c(Cl)cc1C(=O)N[C@H]1CCN(CCCOc2ccc(F)cc2)C[C@H]1F (single isomer, unassigned) [(−)-12, cis-4-amino-5-chloro-N-{3-fluoro-1-[3-(4-fluorophenoxy)-propyl]-piperidin-4-yl}-2-methoxybenzamide]",1.86 µM,0.49 µM,,,
"COc1cc(N)c(Cl)cc1C(=O)NC1CCN(CCCOc2ccc(F)cc2)CC1(F)F (single isomer, unassigned) [Compound (−)-17, 4-amino-5-chloro-N-{3,3-difluoro-1-[3-(4-fluorophenoxy)-propyl]-piperidin-4-yl}-2-methoxybenzamide]",> 10 µM,1.74 µM,3 (7) %,11 (10) %,47 (11) %
"COc1cc(N)c(Cl)cc1C(=O)NC1CCN(CCCOc2ccc(F)cc2)CC1(F)F (racemic) [(±)-17, 4-amino-5-chloro-N-{3,3-difluoro-1-[3-(4-fluorophenoxy)-propyl]-piperidin-4-yl}-2-methoxybenzamide]",7.94 µM,1.95 µM,9 (7) %,17 (15) %,58 (21) %
"COc1cc(N)c(Cl)cc1C(=O)N[C@H]1CCN(CCCOc2ccc(F)cc2)C[C@H]1F (single isomer, unassigned) [(+)-12, cis-4-amino-5-chloro-N-{3-fluoro-1-[3-(4-fluorophenoxy)-propyl]-piperidin-4-yl}-2-methoxybenzamide]",0.741 µM,0.324 µM,,,
"COc1cc(N)c(Cl)cc1C(=O)N[C@@H]1CCN(CCCOc2ccc(F)cc2)C[C@H]1F (single isomer, unassigned) [(−)-7, trans-4-amino-5-chloro-N-{3-fluoro-1-[3-(4-fluorophenoxy)-propyl]-piperidin-4-yl}-2-methoxybenzamide]",1.1 µM,0.759 µM,,,
"COc1cc(N)c(Cl)cc1C(=O)N[C@@H]1CCN(CCCOc2ccc(F)cc2)C[C@H]1F (racemic) [(±)-7, trans-4-amino-5-chloro-N-{3-fluoro-1-[3-(4-fluorophenoxy)-propyl]-piperidin-4-yl}-2-methoxybenzamide]",1.82 µM,0.112 µM,35 (7) %,62 (15) %,94 (21) %
"COc1cc(N)c(Cl)cc1C(=O)N[C@@H]1CCN(CCCOc2ccc(F)cc2)C[C@H]1F (single isomer, unassigned) [(+)-7, trans-4-amino-5-chloro-N-{3-fluoro-1-[3-(4-fluorophenoxy)-propyl]-piperidin-4-yl}-2-methoxybenzamide]",0.676 µM,0.0708 µM,,,
"COc1cc(N)c(Cl)cc1C(=O)NC1CCN(CCCOc2ccc(F)cc2)CC1(F)F (single isomer, unassigned; (+)) [(+)-17, 4-amino-5-chloro-N-{3,3-difluoro-1-[3-(4-fluorophenoxy)-propyl]-piperidin-4-yl}-2-methoxybenzamide]",5.62 µM,2.57 µM,14 (7) %,21 (10) %,52 (11) %
"COc1cc(N)c(Cl)cc1C(=O)N[C@H]1CCN(CCCOc2ccc(F)cc2)C[C@H]1F (racemic) [(±)-12, cis-4-amino-5-chloro-N-{3-fluoro-1-[3-(4-fluorophenoxy)-propyl]-piperidin-4-yl}-2-methoxybenzamide]",4.17 µM,0.363 µM,40 (7) %,73 (15) %,96 (21) %
